Data reported in PubChem BioAssay AID330 (DTP/NCI, 2004).
“And” between values parts separate entries of the source, which are not always exact repeats. Equal entries are not always repeated. Inconclusive results and toxic doses are left out.

Test system: P388 leukemia ip, CD2F1 mice, survival T/C
Test: NCI In Vivo Anticancer Drug Screen. Data for tumor model P388 Leukemia (intraperitoneal) in CD2F1 (CDF1) mice
Conditions: endpoint: median survival time, higher = longer survival
How it was run: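 Mice carrying the transplanted tumor received test compound or vehicle. Survival was recorded in each group, and the value is the treated-group measurement divided by that of the vehicle-treated control group.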

[1] = dose: 100.0 mg/kg/injection, schedule: Q01DX001 (ip), vehicle: Klucel (hydroxypropylcellulose) (HPC)
[2] = dose: 200.0 mg/kg/injection, schedule: Q01DX001 (ip), vehicle: Klucel (hydroxypropylcellulose) (HPC)

Q: What does the source list for `Nc1cc2c(c[n+](CCCCCCCCC[n+]3cc4c5ccccc5c(N)cc4c4ccccc43)c3ccccc23)c2ccccc12`?
A: T/C (dose: 0.39 mg/kg/injection, schedule: Q04DX003 (ip), vehicle: other): 150 % of control; T/C (dose: 0.78 mg/kg/injection, schedule: Q04DX003 (ip), vehicle: other): 173 % of control; T/C (dose: 1.56 mg/kg/injection, schedule: Q04DX003 (ip), vehicle: other): 162 % of control; T/C (dose: 3.13 mg/kg/injection, schedule: Q04DX003 (ip), vehicle: other): 173 % of control; T/C (dose: 6.25 mg/kg/injection, schedule: Q04DX003 (ip), vehicle: other): 169 % of control and 191 % of control; T/C (dose: 12.5 mg/kg/injection, schedule: Q04DX003 (ip), vehicle: other): 117 % of control and 95 % of control

Q: How did the T/C (dose: 8.75 mg/kg/injection, schedule: Q01DX005 (ip), vehicle: Klucel (hydroxypropylcellulose) (HPC)) turn out when `COC(=O)C1Cc2cocc2CC(C(=O)OC)N1C(=O)OC(C)(C)C` (stereo unspecified) was run?
A: 99 % of control

Q: And the T/C (dose: 17.5 mg/kg/injection, schedule: Q01DX005 (ip), vehicle: Klucel (hydroxypropylcellulose) (HPC))?
A: 101 % of control

Q: And the T/C (dose: 35.0 mg/kg/injection, schedule: Q01DX005 (ip), vehicle: Klucel (hydroxypropylcellulose) (HPC))?
A: 99 % of control

Q: Which T/C (dose: 22.5 mg/kg/injection, schedule: Q01DX009 (ip), vehicle: Klucel (hydroxypropylcellulose) (HPC)) does the source give for `COc1ccc(OC)c(NC(=O)Nc2nccs2)c1` here?
A: 99 % of control

Q: What about the T/C (dose: 45.0 mg/kg/injection, schedule: Q01DX009 (ip), vehicle: Klucel (hydroxypropylcellulose) (HPC)) of the same compound?
A: 100 % of control

Q: What about the T/C (dose: 90.0 mg/kg/injection, schedule: Q01DX009 (ip), vehicle: Klucel (hydroxypropylcellulose) (HPC)) of the same compound?
A: 97 % of control

Q: And the T/C (dose: 180.0 mg/kg/injection, schedule: Q01DX009 (ip), vehicle: Klucel (hydroxypropylcellulose) (HPC))?
A: 92 % of control

Q: How did the T/C (dose: 1.25 mg/kg/injection, schedule: Q01DX009 (ip), vehicle: saline with Tween-80) turn out when `N#C[C@@H]1C2C=CC(CC2)[C@H]1C#N` was run?
A: 100 % of control

Q: What about the T/C (dose: 1.25 mg/kg/injection, schedule: Q04DX003 (ip), vehicle: saline with Tween-80) of the same compound?
A: 91 % of control

Q: What about the T/C (dose: 2.5 mg/kg/injection, schedule: Q01DX009 (ip), vehicle: saline with Tween-80) of the same compound?
A: 112 % of control

Q: What about the T/C (dose: 2.5 mg/kg/injection, schedule: Q04DX003 (ip), vehicle: saline with Tween-80) of the same compound?
A: 104 % of control

Q: And the T/C (dose: 5.0 mg/kg/injection, schedule: Q04DX003 (ip), vehicle: saline with Tween-80)?
A: 91 % of control

Q: `O=[N+]([O-])c1ncccc1NCCN1CCCC1` was tested. Which T/C (dose: 12.5 mg/kg/injection, schedule: Q01DX009 (ip), vehicle: saline) did it give?
A: 104 % of control

Q: And the T/C (dose: 25.0 mg/kg/injection, schedule: Q01DX009 (ip), vehicle: saline)?
A: 100 % of control

Q: And the T/C (dose: 50.0 mg/kg/injection, schedule: Q01DX009 (ip), vehicle: saline)?
A: 106 % of control and 108 % of control

Q: Which results are given for `COC(CNc1nc2c(s1)c1c(O)c3c(O)c(C)c4c(c32)C(=O)C(C)(O/C=C\C(OC)C(C)C(OC(C)=O)C(C)C(O)C(C)C(O)C(C)/C=C/C=C(/C)C(=O)N1)O4)OC` (stereo unspecified)?
A: T/C (dose: 25.0 mg/kg/injection, schedule: Q01DX009 (ip), vehicle: Klucel (hydroxypropylcellulose) (HPC)): 93 % of control; T/C (dose: 50.0 mg/kg/injection, schedule: Q01DX009 (ip), vehicle: Klucel (hydroxypropylcellulose) (HPC)): 95 % of control; T/C (dose: 100.0 mg/kg/injection, schedule: Q01DX009 (ip), vehicle: Klucel (hydroxypropylcellulose) (HPC)): 93 % of control; T/C (dose: 200.0 mg/kg/injection, schedule: Q01DX009 (ip), vehicle: Klucel (hydroxypropylcellulose) (HPC)): 94 % of control

Q: How did the T/C (dose: 100.0 mg/kg/injection, schedule: Q04DX003 (ip), vehicle: saline with Tween-80) turn out when `CNCCCCCc1cc(-c2ccc([N+](=O)[O-])cc2)on1` was run?
A: 95 % of control

Q: What about the T/C (dose: 200.0 mg/kg/injection, schedule: Q04DX003 (ip), vehicle: saline with Tween-80) of the same compound?
A: 100 % of control

Q: What does the source list for `N#Cc1ccc(NN=NCCOCCCl)cc1`?
A: T/C (dose: 6.25 mg/kg/injection, schedule: Q01DX009 (ip), vehicle: distilled water + Tween-80): 97 % of control; T/C (dose: 12.5 mg/kg/injection, schedule: Q01DX009 (ip), vehicle: distilled water + Tween-80): 107 % of control; T/C (dose: 25.0 mg/kg/injection, schedule: Q01DX009 (ip), vehicle: distilled water + Tween-80): 104 % of control; T/C (dose: 50.0 mg/kg/injection, schedule: Q01DX009 (ip), vehicle: distilled water + Tween-80): 103 % of control; T/C (dose: 100.0 mg/kg/injection, schedule: Q01DX009 (ip), vehicle: distilled water + Tween-80): 104 % of control

Q: Which results are given for `c1ccc2nc(N3CCCC3)c(N3CCCCC3)nc2c1`?
A: T/C (dose: 50.0 mg/kg/injection, schedule: Q01DX005 (ip), vehicle: Klucel (hydroxypropylcellulose) (HPC)): 102 % of control; T/C (dose: 100.0 mg/kg/injection, schedule: Q01DX005 (ip), vehicle: Klucel (hydroxypropylcellulose) (HPC)): 94 % of control; T/C (dose: 200.0 mg/kg/injection, schedule: Q01DX005 (ip), vehicle: Klucel (hydroxypropylcellulose) (HPC)): 100 % of control

Q: With `O=[N+]([O-])C1(Cl)CCC(Cl)([N+](=O)[O-])CC1` (stereo unspecified) as the compound, how does the T/C [1] read?
A: 100 % of control

Q: What about the T/C [2] of the same compound?
A: 104 % of control

Q: Which T/C (dose: 60.0 mg/kg/injection, schedule: Q01DX005 (ip), vehicle: Klucel (hydroxypropylcellulose) (HPC)) does the source give for `CC1=NN(c2ccccc2)C(=O)C1C1c2ccccc2S(=O)(=O)c2ccccc21` (stereo unspecified) here?
A: 97 % of control

Q: What about the T/C (dose: 120.0 mg/kg/injection, schedule: Q01DX005 (ip), vehicle: Klucel (hydroxypropylcellulose) (HPC)) of the same compound?
A: 87 % of control

Q: For `Nc1nnn(CCCl)n1`, which T/C [1] is on record?
A: 88 % of control

Q: What about the T/C [2] of the same compound?
A: 88 % of control
